Results from patent US7989435B2, “Phytic citrate compounds and process for preparing the same” (IP-6 Research, Inc., priority 2005, dated 2011).
Several values for one entry are separate records, joined by “and”; a condition that tells them apart may be missing. Identical values can stand only once. Like-named read-outs stand apart in the source and are kept apart here.

Experiments:
[1] = Comparison of chelating effects, divalent cation electrode and ion analyzer; format: binding; design: unit not given here
Procedure: The chelating effects of the various chelators were measured by the conventional method known to an artisan in the art. The concentration of the ions chelated by the chelator was determined using a divalent cation electrode (e.g., Model 93-32, made by Orion Research Incorporated) and an ion analyzer (e.g., Model EA 920, made by Orion Research Incorporated).

[2] = Biodegradability, 301 A DOC Die-Away Test (OECD Guidelines)
Procedure: The biodegradability of phytic citrate was evaluated according to the method of “301 A DOC Die-Away Test” (1993), OECDGuidelines for Testing of Chemicals.

[3] = Re-dissolution rate of Fe^2+, FIG. 2; conditions: in brain tissues, compared with phytic acid and EDTA
[4] = at 66 grams/liter; cited from earlier work
[5] = 7 days, test suspension / reference flask
[6] = 14 days, test suspension / reference flask

CC(O)C(=O)O (stereo not drawn) [Lactic acid]
Ca^2+ (conc. of ions chelated) [1]: 1.07

O=C(O)CN(CCN(CC(=O)O)CC(=O)O)CC(=O)O [EDTA, ethylenediaminetetraacetic acid]
Ca^2+ (conc. of ions chelated) [1]: 10.70

phytic hexa-citrate [Phytic citrate]
Degradation (%) in days ([2]; 7 days, abiotic sterile control): <10%
Degradation (%) in days ([2]; 7 days, absorption control): <10%
Degradation (%) in days [2, 5]: >90 (98.0) % and >90 (97.6) % and >90 (99.4) %
Degradation (%) in days ([2]; 14 days (mean of test suspension flasks 1-3)): >90 (99.5) %
Degradation (%) in days ([2]; 14 days, abiotic sterile control): <10%
Degradation (%) in days ([2]; 14 days, absorption control): <10%
Degradation (%) in days [2, 6]: >90 (98.6) % and >90 (100) %
Biodegradability (conclusion in words) ([2]; results of Table 3): readily biodegradable
Re-dissolution rate of Fe^2+ [3]: superior redissolution capability to phytic acid and EDTA
Ca^2+ (conc. of ions chelated) [1]: 12.24

Polyphosphoric acid
Ca^2+ (conc. of ions chelated) [1]: 3.0

Nc1ccccc1 [Aniline Reference, Aniline, reference compound]
Degradation (%) in days [2, 5]: >90 (100) %
Degradation (%) in days [2, 6]: >90 (99.7) %

O=C(O)[C@H](O)[C@@H](O)[C@H](O)[C@H](O)CO [Gluconic acid]
Ca^2+ (conc. of ions chelated) [1]: 1.20

O=P(O)(O)O[C@H]1[C@H](OP(=O)(O)O)[C@@H](OP(=O)(O)O)[C@H](OP(=O)(O)O)[C@@H](OP(=O)(O)O)[C@H]1OP(=O)(O)O [Phytic acid]
pH of aqueous solution [4]: 0.9
Ca^2+ (conc. of ions chelated) ([1]; pH 3): 9.73
Ca^2+ (conc. of ions chelated) ([1]; pH 5): 10.55
Ca^2+ (conc. of ions chelated) ([1]; pH 7): 10.57

O=C(O)CC(O)(CC(=O)O)C(=O)O [Citric acid]
Ca^2+ (conc. of ions chelated) [1]: 3.50
